Source: US12110294B2, “CD73 compounds” (Gilead Sciences, Inc., priority 2020, dated 2024)

Biological target: T1, CD73 activity in MDA-MB-231-GFP cells (Homo sapiens, UniProt P21589)
T1 construct: endogenous in cells; host or cells: MDA-MB-231-GFP cells
T1 sequence (P21589 27-549): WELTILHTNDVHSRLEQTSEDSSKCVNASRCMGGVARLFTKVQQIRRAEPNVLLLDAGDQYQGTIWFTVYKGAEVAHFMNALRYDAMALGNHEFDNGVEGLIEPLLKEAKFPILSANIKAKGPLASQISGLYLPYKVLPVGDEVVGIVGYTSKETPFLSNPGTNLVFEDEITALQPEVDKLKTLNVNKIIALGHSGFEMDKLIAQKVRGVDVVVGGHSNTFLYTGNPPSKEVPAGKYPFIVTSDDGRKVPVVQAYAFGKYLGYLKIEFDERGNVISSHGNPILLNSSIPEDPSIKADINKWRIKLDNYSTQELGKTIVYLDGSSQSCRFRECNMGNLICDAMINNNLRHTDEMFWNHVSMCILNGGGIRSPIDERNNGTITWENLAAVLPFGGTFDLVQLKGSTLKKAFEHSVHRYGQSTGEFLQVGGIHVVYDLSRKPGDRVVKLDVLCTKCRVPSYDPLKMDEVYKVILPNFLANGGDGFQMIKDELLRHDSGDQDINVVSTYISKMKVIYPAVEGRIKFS
Experiment: MDA-MB-231 Cell Based CD73 Activity Assay (DMEM)
Details: 3000 cells per well, DMEM medium with 10% human plasma, overnight compound treatment, AMP 200 uM
Procedure: MDA-MB-231 Cell Based CD73 Activity Assay (DMEM) MDA-MB-231-GFP cells were seeded in 384-well plates (Greiner 781946) at a density of 3000 cells per well in 50 μL of DMEM medium with 10% HP (human plasma). Cells were plated into assay plate with compounds pre-spotted, for an overnight compound treatment. 50 uL of 400 uM AMP (final concentration will be 200 uM) was added using Bio-tek dispenser. Plates were incubated for 100 mins. […] The samples were analyzed using Rapid fire.

SMILES | EC50 [nM]
O=c1[nH]cc(-c2cc([C@H]3C[C@@H]3c3cc4c(ccn4CC(F)(F)F)cn3)c3nccn3n2)c(=O)[nH]1 (racemic) [Example 127, 5-(8-((2S,2S)-2-(1-(2,2,2-trifluoroethyl)-1H-pyrrolo[3,2-c]pyridin-6-yl)cyclopropyl)imidazo[1,2-b]pyridazin-6-yl)pyrimidine-2,4(1H,3H)-dione] | 0.17
O=c1[nH]cc(-c2cc([C@H]3C[C@@H]3c3ccc4ncsc4c3)c3nc(C4CC4)cn3n2)c(=O)[nH]1 (racemic) [Example 143, 5-(8-((1S,2S)-2-(benzo[d]thiazol-6-yl)cyclopropyl)-2-cyclopropylimidazo[1,2-b]pyridazin-6-yl)pyrimidine-2,4(1H,3H)-dione] | 13.1
N#Cc1ccc([C@H]2C[C@@H]2c2cc(-c3c[nH]c(=O)[nH]c3=O)nn3ccnc23)nc1 (racemic) [Example 155, 6-((1S,2S)-2-(6-(2,4-dioxo-1,2,3,4-tetrahydropyrimidin-5-yl)imidazo[1,2-b]pyridazin-8-yl)cyclopropyl)nicotinonitrile] | 5.42
O=c1[nH]cc(-c2cc([C@H]3C[C@@H]3c3ccc4cnccc4c3)c3nccn3n2)c(=O)[nH]1 (racemic) [Example 156, 5-(8-((1S,2S)-2-(isoquinolin-6-yl)cyclopropyl)imidazo[1,2-b]pyridazin-6-yl)pyrimidine-2,4(1H,3H)-dione] | 1.87
O=c1[nH]cc(-c2cc([C@H]3C[C@@H]3c3ccc4ncccc4c3)c3nccn3n2)c(=O)[nH]1 (racemic) [Example 157, 5-(8-((2S,2S)-2-(quinolin-6-yl)cyclopropyl)imidazo[1,2-b]pyridazin-6-yl)pyrimidine-2,4(1H,3H)-dione] | 2.81
O=c1[nH]cc(-c2cc([C@H]3C[C@@H]3c3ccncc3F)c3nccn3n2)c(=O)[nH]1 (racemic) [Example 161, 5-(8-((1S,2S)-2-(3-fluoropyridin-4-yl)cyclopropyl)imidazo[1,2-b]pyridazin-6-yl)pyrimidine-2,4(1H,3H)-dione] | 11
O=c1[nH]cc(-c2cc([C@H]3C[C@@H]3c3cnc4ccccc4c3)c3nccn3n2)c(=O)[nH]1 (racemic) [Example 163, 5-(8-((1S,2S)-2-(quinolin-3-yl)cyclopropyl)imidazo[1,2-b]pyridazin-6-yl)pyrimidine-2,4(1H,3H)-dione] | 10.6
O=c1[nH]cc(-c2cc([C@H]3C[C@@H]3c3cncc(F)c3)c3nccn3n2)c(=O)[nH]1 (racemic) [Example 164, 5-(8-((1S,2S)-2-(5-fluoropyridin-3-yl)cyclopropyl)imidazo[1,2-b]pyridazin-6-yl)pyrimidine-2,4(1H,3H)-dione] | 14
CCOC(=O)c1cn2nc(-c3c[nH]c(=O)[nH]c3=O)cc([C@H]3C[C@@H]3c3ccc(F)cc3)c2n1 (racemic) [Example 172, ethyl 6-(2,4-dioxo-1,2,3,4-tetrahydropyrimidin-5-yl)-8-((1S,2S)-2-(4-fluorophenyl)cyclopropyl)imidazo[1,2-b]pyridazine-2-carboxylate] | 65.1
O=c1[nH]cc(-c2cc([C@H]3C[C@@H]3c3ccccn3)c3ncc(F)n3n2)c(=O)[nH]1 (racemic) [Example 178, 5-(3-fluoro-8-((1S,2S)-2-(pyridin-2-yl)cyclopropyl)imidazo[1,2-b]pyridazin-6-yl)pyrimidine-2,4(1H,3H)-dione] | 4.35

Continued by falling EC50, values first:

EC50 [nM] | SMILES
378 | O=c1[nH]cc(-c2cc([C@H]3C[C@@H]3c3cccc4ccncc34)c3nccn3n2)c(=O)[nH]1 (racemic) [Example 166, 5-(8-((1S,2S)-2-(isoquinolin-8-yl)cyclopropyl)imidazo[1,2-b]pyridazin-6-yl)pyrimidine-2,4(1H,3H)-dione]
306 | O=c1[nH]cc(-c2cc([C@H]3C[C@@H]3c3cccc4cnccc34)c3nccn3n2)c(=O)[nH]1 (racemic) [Example 168, 5-(8-((1S,2S)-2-(isoquinolin-5-yl)cyclopropyl)imidazo[1,2-b]pyridazin-6-yl)pyrimidine-2,4(1H,3H)-dione]
152 | O=c1[nH]cc(-c2cc([C@H]3C[C@@H]3c3ccnc4ccccc34)c3nccn3n2)c(=O)[nH]1 (racemic) [Example 167, 5-(8-((1S,2S)-2-(quinolin-4-yl)cyclopropyl)imidazo[1,2-b]pyridazin-6-yl)pyrimidine-2,4(1H,3H)-dione]
38.7 | O=c1[nH]cc(-c2cc([C@H]3C[C@@H]3c3ccc(C(F)(F)F)cc3F)c3nccn3n2)c(=O)[nH]1 (racemic) [Example 165, 5-(8-((1S,2S)-2-(2-fluoro-4-(trifluoromethyl)phenyl)cyclopropyl)imidazo[1,2-b]pyridazin-6-yl)pyrimidine-2,4(1H,3H)-dione]
27.8 | O=c1[nH]cc(-c2cc([C@H]3C[C@@H]3c3ccnc(C(F)(F)F)c3)c3nccn3n2)c(=O)[nH]1 (racemic) [Example 160, 5-(8-((2S,2S)-2-(2-(trifluoromethyl)pyridin-4-yl)cyclopropyl)imidazo[1,2-b]pyridazin-6-yl)pyrimidine-2,4(1H,3H)-dione]
5.75 | O=c1[nH]cc(-c2cc([C@H]3C[C@@H]3c3ccc4cccnc4c3)c3nccn3n2)c(=O)[nH]1 (racemic) [Example 154, 5-(8-((1S,2S)-2-(quinolin-7-yl)cyclopropyl)imidazo[1,2-b]pyridazin-6-yl)pyrimidine-2,4(1H,3H)-dione]
1.94 | N#Cc1ccc([C@H]2C[C@@H]2c2cc(-c3c[nH]c(=O)[nH]c3=O)nn3c(F)cnc23)nc1 (racemic) [Example 151, 6-((1S,2S)-2-(6-(2,4-dioxo-1,2,3,4-tetrahydropyrimidin-5-yl)-3-fluoroimidazo[1,2-b]pyridazin-8-yl)cyclopropyl)nicotinonitrile]
0.4 | O=c1[nH]cc(-c2cc([C@H]3C[C@@H]3c3ccc4c(C5CC5)nn(CC(F)(F)F)c4c3)c3nccn3n2)c(=O)[nH]1 (racemic) [Example 128, 5-(8-((2S,2S)-2-(3-cyclopropyl-1-(2,2,2-trifluoroethyl)-1H-indazol-6-yl)cyclopropyl)imidazo[1,2-b]pyridazin-6-yl)pyrimidine-2,4(1H,3H)-dione]
0.14 | O=c1[nH]cc(-c2cc([C@H]3C[C@@H]3c3ccc4c(F)nn(CC(F)(F)F)c4c3)c3nccn3n2)c(=O)[nH]1 (racemic) [Example 117, 5-(8-((2S,2S)-2-(3-fluoro-1-(2,2,2-trifluoroethyl)-1H-indazol-6-yl)cyclopropyl)imidazo[1,2-b]pyridazin-6-yl)pyrimidine-2,4(1H,3H)-dione]
0.13 | O=c1[nH]cc(-c2cc([C@H]3C[C@@H]3c3ccc4cnn(CC5CC5)c4c3)c3nccn3n2)c(=O)[nH]1 (racemic) [Example 130, 5-(8-((2S,2S)-2-(1-(cyclopropylmethyl)-1H-indazol-6-yl)cyclopropyl)imidazo[1,2-b]pyridazin-6-yl)pyrimidine-2,4(1H,3H)-dione]
0.1 | O=c1[nH]cc(-c2cc([C@H]3C[C@@H]3c3ccc4cnn(CC5CC5(F)F)c4c3)c3nccn3n2)c(=O)[nH]1 (mixture of isomers) [Example 118, 5-(8-((2S,2S)-2-(1-((2,2-difluorocyclopropyl)methyl)-1H-indazol-6-yl)cyclopropyl)imidazo[1,2-b]pyridazin-6-yl)pyrimidine-2,4(1H,3H)-dione]
